Reference: US11141413B2, “Method of treating renal cell carcinoma using N-(4-(6,7-dimethoxyquinolin-4-yloxy)phenyl)-N′-(4-fluorophenyl)cyclopropane-1,1-dicarboxamide, (2S)-hydroxybutanedioate” (Exelixis, Inc., priority 2016, dated 2021)

Tested on: patients with advanced renal cell carcinoma
Settings: human, in vivo
Description: Treatment modifications, including interruptions and dose reductions, were allowed to manage adverse events. […] Patients were allowed to continue study treatment beyond radiographic progression at the discretion of the investigator. On-study crossover between treatment groups was not permitted. Safety evaluations, including physical examination, vital signs, and laboratory assessments, were conducted every 2 weeks for the first 8 weeks and then every 4 weeks thereafter. ECG assessments were performed every 4 weeks for the first 8 weeks and then every 12 weeks. A safety follow-up visit was scheduled 30 days after treatment discontinuation. Adverse events were assessed by investigators and graded according to CTCAE version 4.0.
Safety analyses were limited to patients who received any amount of study treatment.

`CO[C@H]1C[C@@H]2CC[C@@H](C)[C@@](O)(O2)C(=O)C(=O)N2CCCC[C@H]2C(=O)O[C@H]([C@H](C)C[C@@H]2CC[C@@H](OCCO)[C@H](OC)C2)CC(=O)[C@H](C)/C=C(\C)[C@@H](O)[C@@H](OC)C(=O)[C@H](C)C[C@H](C)/C=C/C=C/C=C/1C` [everolimus] was tested, and the “ALP increased, All Grades” value was 29%, the “ALP increased, Grade 3-4” value was 1% and the “ALT increased, All Grades” value was 32%. The “ALT increased, Grade 3-4” value was under 1%, the “AST increased, All Grades” value was 40% and the “AST increased, Grade 3-4” value was under 1%. For the same compound, the “Abdominal pain, All Grades” value was 13%, the “Abdominal pain, Grade 1-2” value was 27 (8) n (%) and the “Abdominal pain, Grade 3” value was 5 (2) n (%). For the same compound, the “Abdominal pain, Grade 3-4” value was 2%, the “Abdominal pain, Grade 4” value was 0 n (%) and the “Absolute neutrophil count decreased, All Grades” value was 17%. For the same compound, the “Absolute neutrophil count decreased, Grade 3-4” value was under 1%, the “Adverse reactions led to study treatment being held” value was 59% and the “Adverse reactions led to study treatment discontinuation” value was 10%. The “Alanine aminotransferase increased, Grade 1-2” value was 20 (6) n (%), the “Alanine aminotransferase increased, Grade 3” value was 1 (<1) n (%) and the “Alanine aminotransferase increased, Grade 4” value was 0 n (%). For the same compound, the “Anemia, All Grades” value was 38%, the “Anemia, Grade 1-2” value was 73 (23) n (%) and the “Anemia, Grade 3” value was 53 (17) n (%). For the same compound, the “Anemia, Grade 3-4” value was 16%, the “Anemia, Grade 4” value was 0 n (%) and the “Anemia, all grades” value was 126 (39%) n (%). For the same compound, the “Anemia, grade 3 or 4” value was 53 [17%] n [%], the “Any AE, Grade 1-2” value was 103 (32) n (%) and the “Any AE, Grade 3” value was 167 (52) n (%). The “Any AE, Grade 4” value was 26 (8) n (%), the “Arthralgia, All Grades” value was 14% and the “Arthralgia, Grade 1-2” value was 46 (14) n (%). For the same compound, the “Arthralgia, Grade 3” value was 4 (1) n (%), the “Arthralgia, Grade 3-4” value was 1% and the “Arthralgia, Grade 4” value was 0 n (%). For the same compound, the “Aspartate aminotransferase increased, Grade 1-2” value was 19 (6) n (%), the “Aspartate aminotransferase increased, Grade 3” value was 1 (<1) n (%) and the “Aspartate aminotransferase increased, Grade 4” value was 0 n (%). The “Asthenia, All Grades” value was 16%, the “Asthenia, Grade 1-2” value was 46 (14) n (%) and the “Asthenia, Grade 3” value was 8 (3) n (%). The “Asthenia, Grade 3-4” value was 2%, the “Asthenia, Grade 4” value was 0 n (%) and the “Back pain, Grade 1-2” value was 41 (13) n (%). For the same compound, the “Back pain, Grade 3” value was 7 (2) n (%), the “Back pain, Grade 4” value was 0 n (%) and the “Blood creatinine increased, Grade 1-2” value was 39 (12) n (%). For the same compound, the “Blood creatinine increased, Grade 3” value was 0 n (%), the “Blood creatinine increased, Grade 4” value was 0 n (%) and the “Constipation, All Grades” value was 19%. For the same compound, the “Constipation, Grade 1-2” value was 64 (20) n (%), the “Constipation, Grade 3” value was 1 (<1) n (%) and the “Constipation, Grade 3-4” value was under 1%. For the same compound, the “Constipation, Grade 4” value was 0 n (%), the “Cough, All Grades” value was 33% and the “Cough, Grade 1-2” value was 107 (33) n (%). For the same compound, the “Cough, Grade 3” value was 3 (<1) n (%), the “Cough, Grade 3-4” value was under 1% and the “Cough, Grade 4” value was 0 n (%). For the same compound, the “Creatinine increased, All Grades” value was 71%, the “Creatinine increased, Grade 3-4” value was 0% and the “Decreased appetite, All Grades” value was 34%. For the same compound, the “Decreased appetite, Grade 1-2” value was 111 (35) n (%), the “Decreased appetite, Grade 3” value was 3 (<1) n (%) and the “Decreased appetite, Grade 3-4” value was under 1%. For the same compound, the “Decreased appetite, Grade 4” value was 0 n (%), the “Decreased appetite, all grades” value was 114 (3-5%) n (%) and the “Diarrhea, All Grades” value was 28%. For the same compound, the “Diarrhea, Grade 1-2” value was 85 (26) n (%), the “Diarrhea, Grade 3” value was 7 (2) n (%) and the “Diarrhea, Grade 3-4” value was 2%. For the same compound, the “Diarrhea, Grade 4” value was 0 n (%), the “Discontinuation due to a primary reason of AE (excluding disease progression)” value was 10% and the “Dizziness, All Grades” value was 7%. The “Dizziness, Grade 1-2” value was 21 (7) n (%), the “Dizziness, Grade 3” value was 0 n (%) and the “Dizziness, Grade 3-4” value was 0%. For the same compound, the “Dizziness, Grade 4” value was 0 n (%), the “Dry skin, All Grades” value was 10% and the “Dry skin, Grade 1-2” value was 35 (11) n (%). The “Dry skin, Grade 3” value was 0 n (%), the “Dry skin, Grade 3-4” value was 0% and the “Dry skin, Grade 4” value was 0 n (%). For the same compound, the “Dysgeusia, All Grades” value was 9%, the “Dysgeusia, Grade 1-2” value was 30 (9) n (%) and the “Dysgeusia, Grade 3” value was 0 n (%). The “Dysgeusia, Grade 3-4” value was 0%, the “Dysgeusia, Grade 4” value was 0 n (%) and the “Dyspepsia, All Grades” value was 5%. For the same compound, the “Dyspepsia, Grade 1-2” value was 15 (5) n (%), the “Dyspepsia, Grade 3” value was 0 n (%) and the “Dyspepsia, Grade 3-4” value was 0%. For the same compound, the “Dyspepsia, Grade 4” value was 0 n (%), the “Dysphonia, All Grades” value was 4% and the “Dysphonia, Grade 1-2” value was 16 (5) n (%). For the same compound, the “Dysphonia, Grade 3” value was 0 n (%), the “Dysphonia, Grade 3-4” value was 0% and the “Dysphonia, Grade 4” value was 0 n (%). The “Dyspnea, All Grades” value was 29%, the “Dyspnea, Grade 3-4” value was 4% and the “Dyspnoea, Grade 1-2” value was 82 (26) n (%). The “Dyspnoea, Grade 3” value was 11 (3) n (%), the “Dyspnoea, Grade 4” value was 3 (<1) n (%) and the “Edema peripheral, Grade 1-2” value was 70 (22) n (%). The “Edema peripheral, Grade 3” value was 6 (2) n (%), the “Edema peripheral, Grade 4” value was 0 n (%) and the “Epistaxis, Grade 1-2” value was 46 (14) n (%). For the same compound, the “Epistaxis, Grade 3” value was 0 n (%), the “Epistaxis, Grade 4” value was 0 n (%) and the “Events of arterial thromboembolism” value was 0.3%. The “Fatigue, All Grades” value was 47%, the “Fatigue, Grade 1-2” value was 130 (40) n (%) and the “Fatigue, Grade 3” value was 24 (8) n (%). The “Fatigue, Grade 3-4” value was 7%, the “Fatigue, Grade 4” value was 0 n (%) and the “Fatigue, all grades” value was 154 (48%) n (%). For the same compound, the “Fatigue, grade 3 or 4” value was 24 [7%] n [%], the Fistulas was 0% and the “Flatulence, Grade 1-2” value was 7 (2) n (%). The “Flatulence, Grade 3” value was 0 n (%), the “Flatulence, Grade 4” value was 0 n (%) and the “GGT increased, All Grades” value was 43%. The “GGT increased, Grade 3-4” value was 9% and the “Gastrointestinal (GI) perforations” value was 0.6%.
